The test system of test [1] is A375 cells. Briefly: A375 Crystal Violet (CV) Proliferation Assay. It counts as cell-based. The following applies: A375 human melanoma cells, mutant BRAF V600E, crystal violet staining, 4 days. As for the experimental part:
Cell proliferation for A375 cells [human melanoma cell line, expressing mutant BRAF V600E] was measured by crystal violet (CV) staining: Cultivated human A375 cells were plated out in a density of 1500 cells/measurement point in 200 μl of growth medium (DMEM/HAMS F12 with 10% FBS and 2 mM Glutamine) in a 96-well multititer plate. After 24 hours, the cells from a plate (zero plate) were stained with crystal violet (see below), while the medium in the other plates was replaced by fresh culture medium (200 μl) to which the test substances had been added in various concentrations (0 μM, and in the range 0.3 nM-30 μM; the final concentration of the solvent dimethyl sulphoxide was 0.5%). The cells were incubated in the presence of the test substances for 4 days. The cell proliferation was determined by staining the cells with crystal violet: the cells were fixed by adding 20 μl/measurement point of an 11% glutaraldehyde solution at room temperature for 15 min. After the fixed cells had been washed three times with water, the plates were dried at room temperature. The cells were stained by adding 100 μl/measurement point of a 0.1% crystal violet solution (pH adjusted to pH 3 by adding acetic acid). After the stained cells had been washed three times with water, the plates were dried at room temperature. The dye was dissolved by adding 100 μl/measurement point of a 10% acetic acid solution, and the extinction was determined by photometry at a wavelength of 595 nm. The percentage change in cell growth was calculated by normalizing the measurements to the extinctions of the zero point plate (=0%) and the extinction of the untreated (0 μM) cells (=100%). The IC50 values were determined by means of a 4-parameter fit using the company's own software.

For test [2], the target named is T1, MEK1 (Homo sapiens, UniProt Q02750).
T1 construct: purchased Millipore 14-420
T1 sequence (Q02750 whole entry): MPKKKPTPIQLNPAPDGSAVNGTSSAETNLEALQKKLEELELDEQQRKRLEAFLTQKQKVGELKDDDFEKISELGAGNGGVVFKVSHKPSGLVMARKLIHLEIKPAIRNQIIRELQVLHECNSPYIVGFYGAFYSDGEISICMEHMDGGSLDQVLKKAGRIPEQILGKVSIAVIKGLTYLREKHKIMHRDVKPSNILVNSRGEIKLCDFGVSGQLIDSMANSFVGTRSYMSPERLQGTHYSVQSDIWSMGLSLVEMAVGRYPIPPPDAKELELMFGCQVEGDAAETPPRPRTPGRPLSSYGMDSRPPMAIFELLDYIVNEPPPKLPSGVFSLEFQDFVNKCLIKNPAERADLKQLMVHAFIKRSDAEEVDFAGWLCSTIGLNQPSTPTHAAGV
Briefly: MEK1 Activation Kinase Assay (HTRF; Cot1 phosphorylation of GST-MEK1). It counts as biochemical. The settings on record: activation of GST-MEK1 by Cot1, HTRF, 10 min pre-incubation, 20 min reaction at 22° C. The source says: The kinase Cot1 activates MEK1 by phosphorylating its activation loop. The inhibitory activity of compounds of the present invention on this activation of MEK1 was quantified employing the HTRF assay described in the following paragraphs.
N-terminally His6-tagged recombinant kinase domain of the human Cot1 (amino acids 30-397, purchased from Millipore, cat. no 14-703) expressed in insect cells (SF21) and purified by Ni-NTA affinity chromatography was used as kinase. As substrate for the kinase reaction the unactive C-terminally His6-tagged GST-MEK1 fusion protein (Millipore cat. no 14-420) was used.
For the assay 50 nl of a 100 fold concentrated solution of the test compound in DMSO was pipetted into a black low volume 384 well microtiter plate (Greiner Bio-One, Frickenhausen, Germany), 3 μl of a solution of 24 nM GST-MEK1 and 166.7 μM adenosine-tri-phosphate (ATP) in assay buffer [50 mM Tris/HCl pH 7.5, 10 mM MgCl2, 2 mM dithiothreitol, 0.01% (v/v) Igepal CA 630 (Sigma), 5 mM β-phospho-glycerol] were added and the mixture was incubated for 10 min at 22° C. to allow pre-binding of the test compounds to the GST-MEK1 before the start of the kinase reaction. Then the kinase reaction was started by the addition of 2 μl of a solution of Cot1 in assay buffer and the resulting mixture was incubated for a reaction time of 20 min at 22° C. The concentration of Cot1 in the assay was adjusted depending of the activity of the enzyme lot and was chosen appropriate to have the assay in the linear range, typical enzyme concentrations were in the range of about 2 ng/μl (final conc. in the 5 μl assay volume). The reaction was stopped by the addition of 5 μl of a solution of HTRF detection reagents (13 nM anti GST-XL665 [#61 GSTXLB, Fa. Cis Biointernational, Marcoule, France], 1 nM Eu-cryptate labelled anti-phospho-MEK 1/2 (Ser217/221) [#61P17KAZ, Fa. Cis Biointernational],) in an aqueous EDTA-solution (100 mM EDTA, 500 mM KF, 0.2% (w/v) bovine serum albumin in 100 mM HEPES/NaOH pH 7.5).
The resulting mixture was incubated 2 h at 22° C. to allow the binding of the phosphorylated GST-MEK1 to the anti-GST-XL665 and the Eu-cryptate labelled anti-phospho-MEK 1/2 antibody. Subsequently the amount of Ser217/Ser221-phosphorylated substrate was evaluated by measurement of the resonance is energy transfer from the Eu-Cryptate-labelled anti-phospho-MEK antibody to the anti-GST-XL665. Therefore, the fluorescence emissions at 620 nm and 665 nm after excitation at 350 nm was measured in a HTRF reader, e.g. a Rubystar (BMG Labtechnologies, Offenburg, Germany) or a Viewlux (Perkin-Elmer). The ratio of the emissions at 665 nm and at […] was taken as the measure for the amount of phosphorylated substrate. The data were normalised (enzyme reaction without inhibitor=0% inhibition, all other assay components but no enzyme=100% inhibition).
(In general: In TR-FRET formats the signal depends on donor and acceptor labels being close together.)

Test [3] relates to A549 cells. The experiment in a line: A549 Cell Titer Glo (CTG) Proliferation Assay. It counts as cell-based. The settings on record: A549 human non small cell lung cancer cells, mutant K-Ras G12S. How it is done: (§1) HCT116 cells [human colorectal cell line, expressing […]] were plated at a density of 3000 cells/well in 96 well black-clear bottom tissue culture plates (Costar 3603 black/clear bottom) in 100 μl/well DMEM medium (DMEM/Ham's F12) with 10% Fetal Bovine Serum (FBS) and stable Glutamine incubated at 37° C. Sister wells were plated in separate plate for time zero determination. All plates were incubated overnight at 37° C. Take down time zero plate: 100 μl/well CTG solution (Promega Cell Titer Glo solution) were added to time zero wells in sister plate; the plates were mixed for 2 min on orbital shaker to ensure cell lysis, incubated for 10 minutes, luminescence was read on VICTOR3 (Perkin Elmer). Twenty-four hours after cell seeding, test compounds were diluted in 50 μl medium and were added at a final concentration range from as high 10 μM to as low […] depending on the activities of the tested compounds in serial dilutions at a final DMSO concentration of 0.4%. Cells were incubated for 72 hours at 37° C. after addition of the test compound. Then, using a Promega Cell Titer Glo Luminescent® assay kit, 100 μl microliter lysis buffer containing of the enzyme luciferase and its substrate, luciferin mixture, were added to each well and incubated for 10 min at room temperature in the dark to stabilize luminescence signal. The samples were read on VICTOR3 (Perkin Elmer) using Luminescence protocol. The percentage change in cell growth was calculated by normalizing the measurements to the extinctions of the zero point plate (=0%) and the extinction of the untreated (0 μM) cells (=100%). The IC50 values were determined by means of a 4-parameter fit using the company's own software.
A549 cells [human non small cell lung cancer cell line, expressing mutant K-Ras G12S] were seeded at a density of 2000 cells/well in 96 well black-clear bottom tissue culture plates (Costar 3603 black/clear bottom) in 100 μl/well DMEM medium (DMEM/Ham's F12) with 10% Fetal Bovine Serum (FBS) and stable Glutamine incubated at 37° C. Cell Titer Glo proliferation assays for A549 cells were performed with the same protocol as described afore for HCT116 cells.
In general terms: ATP-based viability assays read luminescence as a measure of living cells.

The subject of test [4] is HCT116 cells. Briefly: HCT116 Cell Titer Glo (CTG) Proliferation Assay. The settings on record: HCT116 human colorectal cells. The test is classed as cell-based. How it is done: as §1

Each structure is given as a SMILES string.

Usually IC50 stands for the point on the concentration scale where inhibition reaches its midpoint. Consider `Cc1cc(NS(=O)(=O)C2(CC(O)CO)CC2)c(Nc2ccc(I)cc2F)n(C)c1=O` (racemic) [Example 2, 1-(2,3-dihydroxypropyl)-N-(2-(2-fluoro-4-iodophenylamino)-1,5-dimethyl-6-oxo-1,6-dihydropyridin-3-yl)cyclopropane-1-sulfonamide], for which the IC50 was found to be 17 nM in test [1] (Homo sapiens, A-375, 96 h) and 11.5 nM in test [2].

In the case of `Cn1c(Nc2ccc(I)cc2F)c(NS(=O)(=O)C2(CC(O)CO)CC2)cc(F)c1=O` (racemic) [Example 9, 1-(2,3-dihydroxypropyl)-N-{5-fluoro-2-[(2-fluoro-4-iodophenyl)amino]-1-methyl-6-oxo-1,6-dihydropyridin-3-yl}cyclopropanesulfonamide], the IC50 in test [1] (Homo sapiens, A-375, 96 h) was 25.5 nM; in test [2], 21.1 nM; in test [3] (Homo sapiens, A549, 72 h), 700 nM; in test [4] (Homo sapiens, HCT-116, 72 h) it was 300 nM.

In the case of `Cn1c(Nc2ccc(I)cc2F)c(NS(=O)(=O)C2(CC(O)CO)CC2)ccc1=O` (single isomer, unassigned) [Example 6A, 1-(2,3-dihydroxypropyl)-N-{2-[(2-fluoro-4-iodophenyl)amino]-1-methyl-6-oxo-1,6-dihydropyridin-3-yl}cyclopropanesulfonamide], the IC50 in test [1] amounted to 17.8 nM; in test [2], 10.4 nM; in test [3] (72 hours) it was 481 nM; in test [4] (72 hours), 119 nM.

As for `Cn1c(Nc2ccc(I)cc2F)c(NS(=O)(=O)C2(CC(O)CO)CC2)ccc1=O` (single isomer, unassigned) [Example 6B, 1-(2,3-dihydroxypropyl)-N-{2-[(2-fluoro-4-iodophenyl)amino]-1-methyl-6-oxo-1,6-dihydropyridin-3-yl}cyclopropanesulfonamide], the IC50 in test [1] was determined as 7.74 nM; in test [2] it was 16.6 nM; in test [3] (72 hours), 203 nM; in test [4] (72 hours), 54.5 nM.

In the case of `Cc1cc(NS(=O)(=O)C2CC2)c(Nc2ccc(I)cc2F)n(C)c1=O` [Example 1, N-(2-(2-fluoro-4-iodophenylamino)-1,5-dimethyl-6-oxo-1,6-dihydropyridin-3-yl) cyclopropanesulfonamide], the IC50 in test [2] was determined as 12.1 nM.

Turning to `Cc1cc(NS(=O)(=O)C2(CCO)CC2)c(Nc2ccc(I)cc2F)n(C)c1=O` [Example 3, N-(2-(2-fluoro-4-iodophenylamino)-1,5-dimethyl-6-oxo-1,6-dihydropyridin-3-yl)-1-(2-hydroxyethyl)cyclopropane-1-sulfonamide], the IC50 in test [1] (Homo sapiens, A-375, 96 h) was found to be 15 nM; in test [2], 8.97 nM.

For `Cn1c(Nc2ccc(I)cc2F)c(NS(=O)(=O)C2CC2)ccc1=O` [Example 5, N-{2-[(2-fluoro-4-iodophenyl)amino]-1-methyl-6-oxo-1,6-dihydropyridin-3-yl}cyclopropanesulfonamide], the IC50 was determined as 2.94 nM in test [1] (Homo sapiens, A-375, 96 h); 9.9 nM in test [2]; 206 nM in test [3] (Homo sapiens, A549, 72 h); 90.1 nM in test [4] (Homo sapiens, HCT-116, 72 h).

Take `Cn1c(Nc2ccc(I)cc2F)c(NS(=O)(=O)C2(CCO)CC2)ccc1=O` [Example 7, N-{2-[(2-fluoro-4-iodophenyl)amino]-1-methyl-6-oxo-1,6-dihydropyridin-3-yl}-1-(2-hydroxyethyl)cyclopropanesulfonamide]: the IC50 in test [1] (Homo sapiens, A-375, 96 h) was 4.7 nM; in test [2] it was 8.36 nM; in test [3] (Homo sapiens, A549, 72 h) it was 254 nM; in test [4] (Homo sapiens, HCT-116, 72 h) it was 117 nM.

For the molecule `Cn1c(Nc2ccc(I)cc2F)c(NS(=O)(=O)C2CC2)cc(F)c1=O` [Example 8, N-{5-fluoro-2-[(2-fluoro-4-iodophenyl)amino]-1-methyl-6-oxo-1,6-dihydropyridin-3-yl}cyclopropanesulfonamide], the IC50 stood at 26.6 nM in test [1] (Homo sapiens, A-375, 96 h); 15.3 nM in test [2]; 930 nM in test [3] (Homo sapiens, A549, 72 h); 590 nM in test [4] (Homo sapiens, HCT-116, 72 h).

Consider `Cn1c(Nc2ccc(I)cc2F)c(NS(=O)(=O)C2(CCO)CC2)cc(F)c1=O` [Example 10, N-{5-fluoro-2-[(2-fluoro-4-iodophenyl)amino]-1-methyl-6-oxo-1,6-dihydropyridin-3-yl}-1-(2-hydroxyethyl)cyclopropanesulfonamide], for which the IC50 in test [1] (Homo sapiens, A-375, 96 h) turned out to be 22.9 nM; in test [2], 38.2 nM; in test [3] (Homo sapiens, A549, 72 h), 730 nM; in test [4] (Homo sapiens, HCT-116, 72 h) it was 360 nM.

For the origin of these results see patent US8673919B2, “Dihydropyridin sulfonamides and dihydropyridin sulfamides as MEK inhibitors” (Ardea Biosciences, Inc., priority 2009, dated 2014).
